From patent publication EP0664802B1, “N-ARYLHETEROARYLALKYL 1-PHENYL-IMIDAZOL-2-ONE COMPOUNDS FOR TREATMENT OF CIRCULATORY DISORDERS” (G.D. SEARLE & CO., priority 1992, dated 1994)
Several values for one entry are separate records, joined by “and”; a condition that tells them apart may be missing. Equal entries are not always repeated.

Assays:
pressor response to AII = assay: Assay C: In Vivo Intragastric Pressor Assay Response for AII antagonists; design: species or system Sprague-Dawley rats; details: Dose: 3 mg/kg (i.g.); for Assay C Duration: AII challenges up to 180 minutes after gavage; for Assay C Inhibition (%): inhibition of pressor response to 30 ng/kg AII bolus, conscious rats
Description: Assay C: In Vivo Intragastric Pressor Assay Response for All Antagonists
Male Sprague-Dawley rats weighing 225-300 grams were anesthetized with methohexital (30 mg/kg, i.p.) and catheters were implanted into the femoral artery and vein. The catheters were tunneled subcutaneously to exit dorsally, posterior to the head and between the scapulae. The catheters were filled with heparin (1000 units/ml of saline). The rats were returned to their cage and allowed regular rat chow and water ad libitum. After full recovery from surgery (3-4 days), rats were placed in Lucite holders and the arterial line was connected to a pressure transducer. Arterial pressure was recorded on a Gould polygraph (mmHg). Angiotensin II was administered as a 30 ng/kg bolus via the venous catheter delivered in a 50 µl volume with a 0.2 ml saline flush. The pressor response in mm Hg was measured by the difference from pre-injection arterial pressure to the maximum pressure achieved. The AII injection was repeated every 10 minutes until three consecutive injections yielded responses within 4 mmHg of each other. These three responses were then averaged and represented the control response to AII. The test compound was suspended in 0.5% methylcellulose in water and was administered by gavage. The volume administered was 2 ml/kg body weight. The standard dose was 3 mg/kg. Angiotensin II bolus injections were given at 30, 45, 60, 75, 120, 150, and 180 minutes after gavage. The pressor response to AII was measured at each time point. The rats were then returned to their cage for future testing. A minimum of 3 days was allowed between tests. Percent inhibition was calculated for each time point following gavage by the following formula: [(Control Response - Response at time point)/Control Response] X 100 [formula] .

rabbit aortic rings = assay: Assay B: In Vitro Vascular Smooth Muscle Response for AII (antagonist activity, isometric force); type: cell-based; details: antagonist at 10^-5 M, 5 min before AII challenge; Schild; aorta rings from two rabbits (two values per cell)
Description: Assay B: In Vitro Vascular Smooth Muscle-Response for AII
The compounds of the invention were tested for antagonist activity in rabbit aortic rings. Male New Zealand white rabbits (2-2.5 kg) were sacrificed using an overdose of pentobarbital and exsanguinated via the carotid arteries. The thoracic aorta was removed, cleaned of adherent fat and connective tissue and then cut into 3-mm ring segments. The endothelium was removed from the rings by gently sliding a rolled-up piece of filter paper into the vessel lumen. The rings were then mounted in a water-jacketed tissue bath, maintained at 37°C, between moveable and fixed ends of a stainless steel wire with the moveable end attached to an FT03 Grass transducer coupled to a Model 7D Grass Polygraph for recording isometric force responses. The bath was filled with 20 ml of oxygenated (95% oxygen/5% carbon dioxide) Krebs solution of the following composition (mM): 130 NaCl, 15 NaHC03, 15 KCl, 1.2 NaH2P04, 1.2 MgS04, 2.5 CaC12, and 11.4 glucose. The preparations were equilibrated for one hour before approximately one gram of passive tension was placed on the rings. Angiotensin II concentration-response curves were then recorded (3 X 10^-10 to 1 x 10^-5 M). Each concentration of AII was allowed to elicit its maximal contraction, and then AII was washed out repeatedly for 30 minutes before rechallenging with a higher concentration of AII. Aorta rings were exposed to the test antagonist at 10^-5 M for 5 minutes before challenging with AII. Adjacent segments of the same aorta ring were used for all concentration-response curves in the presence or absence of the test antagonist. The effectiveness of the test compound was expressed in terms of pA2 values and were calculated according to H.O. Schild [Br. J. Pharmacol. Chemother., 2,189-206 (1947)]. The pA2 value is […] of the antagonist which increases the EC50 value for AII by a factor of two. Each test antagonist was evaluated in aorta rings from two rabbits.

| SMILES | Assay C Duration (pressor response to AII) [min] | Assay C Inhibition (%) (pressor response to AII) | Assay B pA2 (rabbit aortic rings) |
| --- | --- | --- | --- |
| CCCCc1cn(-c2ccccc2CC)c(=O)n1Cc1ccc(-c2ccccc2-c2nnn[nH]2)nc1 [Example 1, 1-(2-ethylphenyl)-4-butyl-1,3-dihydro-3-[[6-[2-(1H-tetrazol-5-yl)phenyl]-3-pyridinyl]methyl]-2H-imidazol-2-one] | >180 | 80 | – |
| CCCCc1cn(-c2ccccc2C(C)(C)C)c(=O)n1Cc1ccc(-c2ccccc2-c2nnn[nH]2)nc1 [Example 2, 1-(2-tertbutylphenyl)-4-butyl-1,3-dihydro-3-[[6-[2-(1H-tetrazol-5-yl)phenyl]-3-pyridinyl]methyl]-2H-imidazol-2-one] | >180 | 40 | – |
| CCCCc1cn(-c2c(OC)cccc2OC)c(=O)n1Cc1ccc(-c2ccccc2-c2nnn[nH]2)nc1 [Example 3, 1-(2,6-dimethoxyphenyl)-4-butyl-1,3-dihydro-3-[[6-[2-(1H-tetrazol-5-yl)phenyl]-3-pyridinyl]methyl]-2H-imidazol-2-one] | >180 | 25 | – |
| CCCCc1cn(-c2c(C)cccc2Cl)c(=O)n1Cc1ccc(-c2ccccc2-c2nnn[nH]2)nc1 [Example 4, 1-(2-chloro-6-methylphenyl)-4-butyl-1,3-dihydro-3-[[6-[2-(1H-tetrazol-5-yl)phenyl]-3-pyridinyl]methyl]-2H-imidazol-2-one] | >180 | 75 | – |
| CCCCc1cn(-c2c(C)cc(C)cc2C)c(=O)n1Cc1ccc(-c2ccccc2-c2nnn[nH]2)nc1 [Example 5, 1-(2,4,6-trimethylphenyl)-4-butyl-1,3-dihydro-3-[[6-[2-(1H-tetrazol-5-yl)phenyl]-3-pyridinyl]methyl]-2H-imidazol-2-one] | >180 | 70 | 8.59 and 8.89 |
| CCCCc1cn(-c2c(C)cc(C(C)(C)C)cc2C)c(=O)n1Cc1ccc(-c2ccccc2-c2nnn[nH]2)nc1 [Example 6, 1-(2,6-dimethyl-4-tertbutylphenyl)-4-butyl-1,3-dihydro-3-[[6-[2-(1H-tetrazol-5-yl)phenyl]-3-pyridinyl]methyl]-2H-imidazol-2-one] | – | – | 8.51 and 8.78 |
| CCCCc1cn(-c2c(CC)cccc2CC)c(=O)n1Cc1ccc(-c2ccccc2-c2nnn[nH]2)nc1 [Example 7, 1-(2,6-diethylphenyl)-4-butyl-1,3-dihydro-3-[[6-[2-(1H-tetrazol-5-yl)phenyl]-3-pyridinyl]methyl]-2H-imidazol-2-one] | – | 20 | – |
| CCCCc1cn(-c2c(C(C)C)cccc2C(C)C)c(=O)n1Cc1ccc(-c2ccccc2-c2nnn[nH]2)nc1 [Example 8, 1-(2,6-diisopropylphenyl)-4-butyl-1,3-dihydro-3-[[6-[2-(1H-tetrazol-5-yl)phenyl]-3-pyridinyl]methyl]-2H-imidazol-2-one] | – | – | 7.14 and 7.07 |
